{"source": "patent US8680339B2", "about": "“Herbicides” (Syngenta Limited, priority 2009, dated 2014)", "type_in_all_cases": "in vivo", "key": {"Avena fatua (AVEFA) [1]": {"tested_on": "Avena fatua (AVEFA)", "test": "Post-emergence herbicidal activity, glasshouse pot test", "settings": "Avena fatua, 312 h, rate 250 g/ha, evaluated after 13 days, 100=total damage to plant, 0=no damage to plant", "description": "(§1) Seeds of a variety of test species were sown in standard soil in pots. After cultivation for one day (pre-emergence) or after 8 days cultivation (post-emergence) under controlled conditions in a glasshouse (at 24/16° C., day/night; 14 hours light; 65% humidity), the plants were sprayed with an aqueous spray solution derived from the formulation of the technical active ingredient in acetone/water (50:50) solution containing 0.5% Tween 20 (polyoxyethelyene sorbitan monolaurate, CAS RN 9005-64-5). The test plants were then grown in a glasshouse under controlled conditions in a glasshouse (at 24/16° C., day/night; 14 hours light; 65% humidity) and watered twice daily. After 13 days for pre and post-emergence, the test was evaluated (100=total damage to plant; 0=no damage to plant). Test Plants: Lolium perenne (LOLPE), Alopecurus myosuroides (ALOMY), Echinochloa crus-galli (ECHCG), and Avena fatua (AVEFA). Post-Emergence Activity"}, "[2]": {"tested_on": "Alopecurus myosuroides (ALOMY)", "test": "Post-emergence herbicidal activity, glasshouse pot test", "settings": "Alopecurus myosuroides, 312 h, rate 250 g/ha, evaluated after 13 days, 100=total damage to plant, 0=no damage to plant", "description": "as §1"}, "[3]": {"tested_on": "Echinochloa crus-galli (ECHCG)", "test": "Post-emergence herbicidal activity, glasshouse pot test", "settings": "Echinochloa crus-galli, 312 h, rate 250 g/ha, evaluated after 13 days, 100=total damage to plant, 0=no damage to plant", "description": "as §1"}, "Lolium perenne (LOLPE) [4]": {"tested_on": "Lolium perenne (LOLPE)", "test": "Post-emergence herbicidal activity, glasshouse pot test", "settings": "Lolium perenne, 312 h, rate 250 g/ha, evaluated after 13 days, 100=total damage to plant, 0=no damage to plant", "description": "as §1"}, "Avena fatua (AVEFA) [5]": {"tested_on": "Avena fatua (AVEFA)", "test": "Pre-emergence herbicidal activity, glasshouse pot test", "settings": "Avena fatua, 312 h, rate 250 g/ha, evaluated after 13 days, 100=total damage to plant, 0=no damage to plant", "description": "as §1, with “Pre-Emergence” for “Post-Emergence”"}, "[6]": {"tested_on": "Alopecurus myosuroides (ALOMY)", "test": "Pre-emergence herbicidal activity, glasshouse pot test", "settings": "Alopecurus myosuroides, 312 h, rate 250 g/ha, evaluated after 13 days, 100=total damage to plant, 0=no damage to plant", "description": "as §1, with “Pre-Emergence” for “Post-Emergence”"}, "[7]": {"tested_on": "Echinochloa crus-galli (ECHCG)", "test": "Pre-emergence herbicidal activity, glasshouse pot test", "settings": "Echinochloa crus-galli, 312 h, rate 250 g/ha, evaluated after 13 days, 100=total damage to plant, 0=no damage to plant", "description": "as §1, with “Pre-Emergence” for “Post-Emergence”"}, "Lolium perenne (LOLPE) [8]": {"tested_on": "Lolium perenne (LOLPE)", "test": "Pre-emergence herbicidal activity, glasshouse pot test", "settings": "Lolium perenne, 312 h, rate 250 g/ha, evaluated after 13 days, 100=total damage to plant, 0=no damage to plant", "description": "as §1, with “Pre-Emergence” for “Post-Emergence”"}}, "data": [{"smiles": "CCc1cc(Oc2ccc(Br)cc2F)ccc1C1=C(O)[C@H]2[C@@H](C1=O)[C@@H]1CC[C@H]2O1", "note": "[Compound A-1]", "values": [{"measurement": "pest or weed control at 250 g/ha", "setting": "Avena fatua (AVEFA) [1]", "value": 80, "unit": "%"}, {"measurement": "pest or weed control at 250 g/ha", "setting": "[2]", "value": 70, "unit": "%"}, {"measurement": "pest or weed control at 250 g/ha", "setting": "[3]", "value": 100, "unit": "%"}, {"measurement": "pest or weed control at 250 g/ha", "setting": "Lolium perenne (LOLPE) [4]", "value": 70, "unit": "%"}, {"measurement": "pest or weed control at 250 g/ha", "setting": "Avena fatua (AVEFA) [5]", "value": 0, "unit": "%"}, {"measurement": "pest or weed control at 250 g/ha", "setting": "[6]", "value": 20, "unit": "%"}, {"measurement": "pest or weed control at 250 g/ha", "setting": "[7]", "value": 30, "unit": "%"}, {"measurement": "pest or weed control at 250 g/ha", "setting": "Lolium perenne (LOLPE) [8]", "value": 20, "unit": "%"}]}, {"smiles": "CCc1cc(Oc2ccc(Cl)cc2)ccc1C1=C(O)[C@H]2[C@@H](C1=O)[C@@H]1CC[C@H]2O1", "note": "[Compound A-2]", "values": [{"measurement": "pest or weed control at 250 g/ha", "setting": "Avena fatua (AVEFA) [1]", "value": 90, "unit": "%"}, {"measurement": "pest or weed control at 250 g/ha", "setting": "[2]", "value": 90, "unit": "%"}, {"measurement": "pest or weed control at 250 g/ha", "setting": "[3]", "value": 100, "unit": "%"}, {"measurement": "pest or weed control at 250 g/ha", "setting": "Lolium perenne (LOLPE) [4]", "value": 80, "unit": "%"}, {"measurement": "pest or weed control at 250 g/ha", "setting": "Avena fatua (AVEFA) [5]", "value": 0, "unit": "%"}, {"measurement": "pest or weed control at 250 g/ha", "setting": "[6]", "value": 30, "unit": "%"}, {"measurement": "pest or weed control at 250 g/ha", "setting": "[7]", "value": 30, "unit": "%"}, {"measurement": "pest or weed control at 250 g/ha", "setting": "Lolium perenne (LOLPE) [8]", "value": 60, "unit": "%"}]}, {"smiles": "Cc1cc(Oc2ccc(Br)cc2F)cc(C)c1C1=C(O)[C@H]2[C@@H](C1=O)[C@@H]1CC[C@H]2O1", "note": "[Compound A-3, meso-(1R,2S,6R,7S)-4-(4-[4-bromo-2-fluorophenoxy]-2,6-dimethylphenyl)-10-oxatricyclo[5.2.1.0^2,6]decane-3,5-dione]", "values": [{"measurement": "pest or weed control at 250 g/ha", "setting": "Avena fatua (AVEFA) [1]", "value": 90, "unit": "%"}, {"measurement": "pest or weed control at 250 g/ha", "setting": "[2]", "value": 100, "unit": "%"}, {"measurement": "pest or weed control at 250 g/ha", "setting": "[3]", "value": 100, "unit": "%"}, {"measurement": "pest or weed control at 250 g/ha", "setting": "Lolium perenne (LOLPE) [4]", "value": 90, "unit": "%"}, {"measurement": "pest or weed control at 250 g/ha", "setting": "Avena fatua (AVEFA) [5]", "value": 30, "unit": "%"}, {"measurement": "pest or weed control at 250 g/ha", "setting": "[6]", "value": 80, "unit": "%"}, {"measurement": "pest or weed control at 250 g/ha", "setting": "[7]", "value": 90, "unit": "%"}, {"measurement": "pest or weed control at 250 g/ha", "setting": "Lolium perenne (LOLPE) [8]", "value": 80, "unit": "%"}]}, {"smiles": "Cc1cc(Oc2ccc(Cl)cc2)cc(C)c1C1=C(O)[C@H]2[C@@H](C1=O)[C@@H]1CC[C@H]2O1", "note": "[Compound A-4]", "values": [{"measurement": "pest or weed control at 250 g/ha", "setting": "Avena fatua (AVEFA) [1]", "value": 90, "unit": "%"}, {"measurement": "pest or weed control at 250 g/ha", "setting": "[2]", "value": 100, "unit": "%"}, {"measurement": "pest or weed control at 250 g/ha", "setting": "[3]", "value": 100, "unit": "%"}, {"measurement": "pest or weed control at 250 g/ha", "setting": "Lolium perenne (LOLPE) [4]", "value": 100, "unit": "%"}, {"measurement": "pest or weed control at 250 g/ha", "setting": "Avena fatua (AVEFA) [5]", "value": 70, "unit": "%"}, {"measurement": "pest or weed control at 250 g/ha", "setting": "[6]", "value": 100, "unit": "%"}, {"measurement": "pest or weed control at 250 g/ha", "setting": "[7]", "value": 90, "unit": "%"}, {"measurement": "pest or weed control at 250 g/ha", "setting": "Lolium perenne (LOLPE) [8]", "value": 80, "unit": "%"}]}, {"smiles": "Cc1cc(Oc2ccccc2F)cc(C)c1C1=C(O)[C@H]2[C@@H](C1=O)[C@@H]1CC[C@H]2O1", "note": "[Compound A-5]", "values": [{"measurement": "pest or weed control at 250 g/ha", "setting": "Avena fatua (AVEFA) [1]", "value": 50, "unit": "%"}, {"measurement": "pest or weed control at 250 g/ha", "setting": "[2]", "value": 60, "unit": "%"}, {"measurement": "pest or weed control at 250 g/ha", "setting": "[3]", "value": 90, "unit": "%"}, {"measurement": "pest or weed control at 250 g/ha", "setting": "Lolium perenne (LOLPE) [4]", "value": 70, "unit": "%"}, {"measurement": "pest or weed control at 250 g/ha", "setting": "Avena fatua (AVEFA) [5]", "value": 30, "unit": "%"}, {"measurement": "pest or weed control at 250 g/ha", "setting": "[6]", "value": 40, "unit": "%"}, {"measurement": "pest or weed control at 250 g/ha", "setting": "[7]", "value": 60, "unit": "%"}, {"measurement": "pest or weed control at 250 g/ha", "setting": "Lolium perenne (LOLPE) [8]", "value": 50, "unit": "%"}]}, {"smiles": "Cc1cc(Oc2ccc(F)cc2F)cc(C)c1C1=C(O)[C@H]2[C@@H](C1=O)[C@@H]1CC[C@H]2O1", "note": "[Compound A-6]", "values": [{"measurement": "pest or weed control at 250 g/ha", "setting": "Avena fatua (AVEFA) [1]", "value": 70, "unit": "%"}, {"measurement": "pest or weed control at 250 g/ha", "setting": "[2]", "value": 90, "unit": "%"}, {"measurement": "pest or weed control at 250 g/ha", "setting": "[3]", "value": 90, "unit": "%"}, {"measurement": "pest or weed control at 250 g/ha", "setting": "Lolium perenne (LOLPE) [4]", "value": 70, "unit": "%"}, {"measurement": "pest or weed control at 250 g/ha", "setting": "Avena fatua (AVEFA) [5]", "value": 30, "unit": "%"}, {"measurement": "pest or weed control at 250 g/ha", "setting": "[6]", "value": 70, "unit": "%"}, {"measurement": "pest or weed control at 250 g/ha", "setting": "[7]", "value": 70, "unit": "%"}, {"measurement": "pest or weed control at 250 g/ha", "setting": "Lolium perenne (LOLPE) [8]", "value": 80, "unit": "%"}]}, {"smiles": "Cc1cc(Oc2ccc(Cl)cc2F)cc(C)c1C1=C(O)[C@H]2[C@@H](C1=O)[C@@H]1CC[C@H]2O1", "note": "[Compound A-7]", "values": [{"measurement": "pest or weed control at 250 g/ha", "setting": "Avena fatua (AVEFA) [1]", "value": 90, "unit": "%"}, {"measurement": "pest or weed control at 250 g/ha", "setting": "[2]", "value": 100, "unit": "%"}, {"measurement": "pest or weed control at 250 g/ha", "setting": "[3]", "value": 100, "unit": "%"}, {"measurement": "pest or weed control at 250 g/ha", "setting": "Lolium perenne (LOLPE) [4]", "value": 100, "unit": "%"}, {"measurement": "pest or weed control at 250 g/ha", "setting": "Avena fatua (AVEFA) [5]", "value": 90, "unit": "%"}, {"measurement": "pest or weed control at 250 g/ha", "setting": "[6]", "value": 70, "unit": "%"}, {"measurement": "pest or weed control at 250 g/ha", "setting": "[7]", "value": 100, "unit": "%"}, {"measurement": "pest or weed control at 250 g/ha", "setting": "Lolium perenne (LOLPE) [8]", "value": 90, "unit": "%"}]}, {"smiles": "Cc1cc(Oc2cccc(F)c2F)cc(C)c1C1=C(O)[C@H]2[C@@H](C1=O)[C@@H]1CC[C@H]2O1", "note": "[Compound A-8]", "values": [{"measurement": "pest or weed control at 250 g/ha", "setting": "Avena fatua (AVEFA) [1]", "value": 40, "unit": "%"}, {"measurement": "pest or weed control at 250 g/ha", "setting": "[2]", "value": 80, "unit": "%"}, {"measurement": "pest or weed control at 250 g/ha", "setting": "[3]", "value": 90, "unit": "%"}, {"measurement": "pest or weed control at 250 g/ha", "setting": "Lolium perenne (LOLPE) [4]", "value": 80, "unit": "%"}, {"measurement": "pest or weed control at 250 g/ha", "setting": "Avena fatua (AVEFA) [5]", "value": 0, "unit": "%"}, {"measurement": "pest or weed control at 250 g/ha", "setting": "[6]", "value": 40, "unit": "%"}, {"measurement": "pest or weed control at 250 g/ha", "setting": "[7]", "value": 40, "unit": "%"}, {"measurement": "pest or weed control at 250 g/ha", "setting": "Lolium perenne (LOLPE) [8]", "value": 30, "unit": "%"}]}]}
